Tests used:
[1] = Octanol-water apparent partition coefficient, log D of the compound at pH 7.4; format: physicochemical; details: for logD: read-out: LogD7.4
Rattus norvegicus [2] = format: toxicity, organism-based; details: in vivo, po, 168 h
Sapajus apella [3] = experiment: Iron excretion in iron-overloaded Cebus apella feces at 75 umol/kg, po after 48 hrs by flame absorption spectroscopy analysis relative to control; format: functional
Sapajus apella [4] = experiment: Iron clearing effect in iron-overloaded Cebus apella at 75 umol/kg, po after 48 hrs by flame absorption spectroscopy analysis; format: functional
Sapajus apella [5] = experiment: Iron excretion in iron-overloaded Cebus apella urine at 75 umol/kg, po after 48 hrs by flame absorption spectroscopy analysis relative to control; format: functional
Rattus norvegicus [6] = experiment: Iron clearing effect in noniron-overloaded bile duct cannulated Sprague-Dawley rat assessed as maximum iron clearance time at 300 umol/kg, po; format: functional
Sapajus apella [7] = experiment: Iron excretion in iron-overloaded Cebus apella urine at 75 umol/kg, sc after 48 hrs by flame absorption spectroscopy analysis relative to control; format: functional
Sapajus apella [8] = experiment: Iron excretion in iron-overloaded Cebus apella feces at 75 umol/kg, sc after 48 hrs by flame absorption spectroscopy analysis relative to control; format: functional
Rattus norvegicus [9] = experiment: Iron clearing effect in noniron-overloaded bile duct cannulated Sprague-Dawley rat at 300 umol/kg, po after 48 hrs; format: functional
Rattus norvegicus [10] = experiment: Iron excretion in noniron-overloaded bile duct cannulated Sprague-Dawley rat urine at 300 umol/kg, po after 48 hrs relative to control; format: functional
Rattus norvegicus [11] = experiment: Iron excretion in noniron-overloaded bile duct cannulated Sprague-Dawley rat bile at 300 umol/kg, po after 48 hrs relative to control; format: functional
Rattus norvegicus [12] = experiment: Iron clearing effect in noniron-overloaded bile duct cannulated Sprague-Dawley rat assessed as maximum iron clearance time at 150 umol/kg, po; format: functional
Rattus norvegicus [13] = experiment: Iron excretion in noniron-overloaded bile duct cannulated Sprague-Dawley rat urine at 150 umol/kg, po after 24 hrs relative to control; format: functional
Rattus norvegicus [14] = experiment: Iron clearing effect in noniron-overloaded bile duct cannulated Sprague-Dawley rat at 150 umol/kg, po after 24 hrs; format: functional
Rattus norvegicus [15] = format: toxicity, organism-based, Serum; details: in vivo, po, 168 h
Sapajus apella [16] = experiment: Iron excretion in iron-overloaded Cebus apella urine at 150 umol/kg, po after 48 hrs by flame absorption spectroscopy analysis relative to control; format: functional
Sapajus apella [17] = experiment: Iron excretion in iron-overloaded Cebus apella feces at 150 umol/kg, po after 48 hrs by flame absorption spectroscopy analysis relative to control; format: functional
Rattus norvegicus [18] = format: toxicity, organism-based, Urine; details: in vivo, po, 168 h
Sapajus apella [19] = experiment: Iron clearing effect in iron-overloaded Cebus apella at 150 umol/kg, po after 48 hrs by flame absorption spectroscopy analysis; format: functional
Rattus norvegicus [20] = format: toxicity, organism-based, Blood; details: in vivo, po, 168 h
Rattus norvegicus [21] = experiment: Iron excretion in noniron-overloaded bile duct cannulated Sprague-Dawley rat bile at 150 umol/kg, po after 24 hrs relative to control; format: functional
Rattus norvegicus [22] = format: toxicity, organism-based, Urine; details: in vivo, po, 168 h; remark: listed apart in the source
Rattus norvegicus [23] = experiment: Toxicity in rat assessed as mortality at 384 umol/kg, po qd for 10 days; format: organism-based; details: in vivo, 240 h

SMILES	logD [1]	Activity (Rattus norvegicus [2])	Activity (Sapajus apella [3]) [%]	Activity (Sapajus apella [4]) [%]	Activity (Sapajus apella [5]) [%]	Time (Rattus norvegicus [6]) [h]	other results
C[C@]1(C(=O)[O-])CSC(c2ncc(O)cc2O)=N1.[Na+]	-1.68	Non-toxic	58	10	42	6	
COCCOCCOc1ccnc(C2=N[C@@](C)(C(=O)[O-])CS2)c1O.[Na+]	-1.38	Non-toxic	40		60	6	Activity (Sapajus apella [7]): 36%; Activity (Sapajus apella [8]): 64%
COCCOCCOc1cccc(C2=N[C@@](C)(C(=O)[O-])CS2)c1O.[Na+]	-0.96		86	22.5	14	6	Activity (Rattus norvegicus [9]): 15.1%; Activity (Rattus norvegicus [10]): 1%; Activity (Rattus norvegicus [11]): 99%
C[C@]1(C(=O)[O-])CSC(c2ncccc2O)=N1.[Na+] [DESFERRITHIOCIN SODIUM]		Toxic					Time (Rattus norvegicus [12]): 3 h; Activity (Rattus norvegicus [13]): 7%; Activity (Rattus norvegicus [14]): 5.5%; Activity (Rattus norvegicus [15]): 5.1 mg/dL; Activity (Sapajus apella [16]): 22%; Activity (Sapajus apella [17]): 78%; Activity (Rattus norvegicus [18]): 1528 ng/kg/day; Activity (Sapajus apella [19]): 16.1%; Activity (Rattus norvegicus [20]): 139 mg/dL; Activity (Rattus norvegicus [21]): 93%; Activity (Rattus norvegicus [22]): 192 ng/kg/day
C[C@]1(C(=O)[O-])CSC(c2ccc(O)cc2O)=N1.[Na+] [DEFERITRIN SODIUM]		Non-toxic				3	Activity (Sapajus apella [16]): 12%; Activity (Sapajus apella [17]): 88%; Activity (Rattus norvegicus [18]): 69 ng/kg/day; Activity (Sapajus apella [19]): 16.8%
C[C@]1(C(=O)[O-])CSC(c2ccccc2O)=N1.[Na+]			76	21.5	24		Time (Rattus norvegicus [12]): 6 h; Activity (Rattus norvegicus [13]): 0%; Activity (Rattus norvegicus [14]): 2.7%; Activity (Rattus norvegicus [21]): 100%
COCCOCCOc1cnc(C2=N[C@@](C)(C(=O)[O-])CS2)c(O)c1.[Na+]	-1.59	Non-toxic	63		37	6	
COCCOCCOc1ccc(C2=N[C@@](C)(C(=O)[O-])CS2)c(O)c1.[Na+]		Non-toxic	83	28.7	17	12	LogD7.4 [1]: -0.89; Activity (Rattus norvegicus [9]): 26.7%; Activity (Rattus norvegicus [10]): 3%; Activity (Rattus norvegicus [23]): Non-toxic; Activity (Rattus norvegicus [11]): 97%

Source: ChEMBL document CHEMBL2163198, “Substituent effects on desferrithiocin and desferrithiocin analogue iron-clearing and toxicity profiles” (J Med Chem, 2012)
